# Laboratory results from US10913727B2, “Modulators of the integrated stress pathway” (Calico Life Sciences LLC, priority 2016, dated 2021).
# Test system: HEK293T cells carrying the ATF4 luciferase reporter
# Assay: ATF4-Luc assay, in vitro model of Vanishing Cell White Matter Disease (VWMD)
# Type: cell-based
# Details: Homo sapiens, HEK-293T, 1 μg/mL tunicamycin, 7 hours, One Glo luminescence
# Procedure, shortened: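 Reporter cells were stably generated by retroviral transduction and puromycin selection, then seeded at 30,000 cells/well. Next day, cells received 1 μg/mL tunicamycin with 200 nM test compound for 7 h, and luciferase luminescence was read with a one-step reagent. Values reported as EC50.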
row,Structure (SMILES),EC50 [nM]
1,"O=C(COc1ccc(Cl)c(F)c1)NC12CC(NC(=O)c3cc(NC4CC4)ccn3)(C1)C2 [Compound 390, N-{3-[2-(4-chloro-3-fluorophenoxy)acetamido]bicyclo[1.1.1]pentan-1-yl}-4-(cyclopropylamino)pyridine-2-carboxamide]",1000 to 2000
2,"CC(C)(O)/C=C/c1ccnc(C(=O)NC23CC(NC(=O)COc4ccc(Cl)c(F)c4)(C2)C3)c1 [Compound 430, N-{3-[2-(4-chloro-3-fluorophenoxy)acetamido]bicyclo[1.1.1]pentan-1-yl}-4-[(1E)-3-hydroxy-3-methylbut-1-en-1-yl]pyridine-2-carboxamide]",> 2000
3,"O=C(COc1ccc(Cl)c(F)c1)NC12CC(NC(=O)c3coc(C4CC4)n3)(C1)C2 [Compound 248, N-{3-[2-(4-chloro-3-fluorophenoxy)acetamido]bicyclo[1.1.1]pentan-1-yl}-2-cyclopropyl-1,3-oxazole-4-carboxamide]",50 to 250
4,"Cc1cc(C(=O)NC23CCC(NC(=O)COc4ccc(Cl)c(F)c4)(CC2)CC3O)on1 (stereo not drawn) [Compound 330, N-{4-[2-(4-chloro-3-fluorophenoxy)acetamido]-2-hydroxybicyclo[2.2.2]octan-1-yl}-3-methyl-1,2-oxazole-5-carboxamide]",50 to 250
5,"O=C(COc1ccc(Cl)c(F)c1)NC12CC(Nc3cc(C(F)(F)F)ccn3)(C1)C2 [Compound 757, 2-(4-chloro-3-fluorophenoxy)-N-(3-{[4-(trifluoromethyl)pyridin-2-yl]amino}bicyclo[1.1.1]pentan-1-yl)acetamide]",> 2000
6,"Cc1nc(C(=O)NC23CC(NC(=O)COc4ccc(Cl)c(F)c4)(C2)C3)co1 [Compound 249, N-{3-[2-(4-chloro-3-fluorophenoxy)acetamido]bicyclo[1.1.1]pentan-1-yl}-2-methyl-1,3-oxazole-4-carboxamide]",50 to 250
7,"COc1ncccc1C(=O)NC12CC(NC(=O)COc3ccc(Cl)c(F)c3)(C1)C2 [Compound 809, N-{3-[2-(4-chloro-3-fluorophenoxy)acetamido]bicyclo[1.1.1]pentan-1-yl}-2-methoxypyridine-3-carboxamide]",> 2000
8,"O=C(COc1ccc(Cl)c(F)c1)NC12CCC(NC(=O)c3cc(Cl)no3)(CC1)CC2O (stereo not drawn) [Compound 414, 3-chloro-N-{4-[2-(4-chloro-3-fluorophenoxy)acetamido]-3-hydroxybicyclo[2.2.2]octan-1-yl}-1,2-oxazole-5-carboxamide]",50 to 250
9,"COc1ccc2oc(C(=O)NC34CC(NC(=O)COc5ccc(Cl)c(F)c5)(C3)C4)cc2c1 [Compound 319, N-{3-[2-(4-chloro-3-fluorophenoxy)acetamido]bicyclo[1.1.1]pentan-1-yl}-5-methoxy-1-benzofuran-2-carboxamide]",50 to 250
10,"Cc1nc(C)c(C(=O)NC23CCC(NC(=O)COc4ccc(Cl)c(F)c4)(CC2)C(O)C3)s1 (stereo not drawn) [Compound 446, N-{4-[2-(4-chloro-3-fluorophenoxy)acetamido]-3-hydroxybicyclo[2.2.2]octan-1-yl}-2,4-dimethyl-1,3-thiazole-5-carboxamide]",250 to 1000
11,"O=C(COc1ccc(Cl)c(F)c1)NC12CC(NC(=O)c3cc(OC(F)F)ccn3)(C1)C2 [Compound 300, N-{3-[2-(4-chloro-3-fluorophenoxy)acetamido]bicyclo[1.1.1]pentan-1-yl}-4-(difluoromethoxy)pyridine-2-carboxamide]",250 to 1000
12,"Cc1nc2cc(C(=O)NC34CC(NC(=O)COc5ccc(Cl)c(F)c5)(C3)C4)ccc2n1C [Compound 810, N-{3-[2-(4-chloro-3-fluorophenoxy)acetamido]bicyclo[1.1.1]pentan-1-yl}-1,2-dimethyl-1H-benzimidazole-5-carboxamide]",> 2000
13,"O=C(COc1ccc2c(c1)OC(F)(F)O2)NC12CC(NC(=O)c3ccc(OC(F)(F)F)nc3)(C1)C2 [Compound 379, N-(3-{2-[(2,2-difluoro-2H-1,3-benzodioxol-5-yl)oxy]acetamido}bicyclo[1.1.1]pentan-1-yl)-6-(trifluoromethoxy)pyridine-3-carboxamide]",50 to 250
14,"O=C(COc1ccc(Cl)c(F)c1)NC12CC(NC(=O)c3ccc(-c4ccco4)cn3)(C1)C2 [Compound 267, N-{3-[2-(4-chloro-3-fluorophenoxy)acetamido]bicyclo[1.1.1]pentan-1-yl}-5-(furan-2-yl)pyridine-2-carboxamide]",< 50
15,"CCn1nc(C(=O)NC23CC(NC(=O)COc4ccc(Cl)c(F)c4)(C2)C3)cc1C [Compound 836, N-{3-[2-(4-chloro-3-fluorophenoxy)acetamido]bicyclo[1.1.1]pentan-1-yl}-1-ethyl-5-methyl-1H-pyrazole-3-carboxamide]",> 2000
16,"N#Cc1cccc(C(=O)NC23CCC(NC(=O)COc4ccc(Cl)c(F)c4)(CC2)CC3O)c1 (stereo not drawn) [Compound 209, N-{4-[2-(4-chloro-3-fluorophenoxy)acetamido]-2-hydroxybicyclo[2.2.2]octan-1-yl}-3-cyanobenzamide]",250 to 1000
17,"Cc1cc(C(=O)NC23CC(NC(=O)COc4ccc(Cl)c(F)c4)(C2)C3)ns1 [Compound 677, N-{3-[2-(4-chloro-3-fluorophenoxy)acetamido]bicyclo[1.1.1]pentan-1-yl}-5-methyl-1,2-thiazole-3-carboxamide]",250 to 1000

row,Structure (SMILES),EC50 [nM]
1,"O=C(COc1ccc(Cl)c(F)c1)NC12CCC(NC(=O)c3cnccn3)(CC1)C(O)C2 (stereo not drawn) [Compound 219, N-{4-[2-(4-chloro-3-fluorophenoxy)acetamido]-2-hydroxybicyclo[2.2.2]octan-1-yl}pyrazine-2-carboxamide]",50 to 250
2,"Cc1nc(C(=O)NC23CCC(NC(=O)COc4ccc(Cl)c(F)c4)(CC2)[C@H](O)C3)c(C)s1 [Compound 497, N-{(3R)-4-[2-(4-chloro-3-fluorophenoxy)acetamido]-3-hydroxybicyclo[2.2.2]octan-1-yl}-2,5-dimethyl-1,3-thiazole-4-carboxamide]",250 to 1000
3,"O=C(COc1ccc(Cl)c(F)c1)NC12CCC(NC(=O)c3cc(Cc4ccc(Cl)cc4)no3)(CC1)CC2O (stereo not drawn) [Compound 410, N-{4-[2-(4-chloro-3-fluorophenoxy)acetamido]-3-hydroxybicyclo[2.2.2]octan-1-yl}-3-[(4-chlorophenyl)methyl]-1,2-oxazole-5-carboxamide]",50 to 250
4,"Cc1ccc(C(=O)NC23CCC(NC(=O)COc4ccc(Cl)c(F)c4)(CC2)C[C@@H]3O)nc1 [Compound 589, N-{(2S)-4-[2-(4-chloro-3-fluorophenoxy)acetamido]-2-hydroxybicyclo[2.2.2]octan-1-yl}-5-methylpyridine-2-carboxamide]",50 to 250
5,"O=C(COc1ccc(Cl)c(F)c1)NC12CCC(NC(=O)c3cc(C(F)(F)F)ccn3)(CC1)CC2O (stereo not drawn) [Compound 933, N-{4-[2-(4-chloro-3-fluorophenoxy)acetamido]-3-hydroxybicyclo[2.2.2]octan-1-yl}-4-(trifluoromethyl)pyridine-2-carboxamide]",50 to 250
6,"O=C(COc1ccc(Cl)c(F)c1)NC12CCC(NC(=O)c3cnc(C(F)F)cn3)(CC1)[C@H](O)C2 (single isomer, unassigned) [Compound 235]",50 to 250
7,"Cc1nc2ccc(C(=O)NC34CC(NC(=O)COc5ccc(Cl)c(F)c5)(C3)C4)cc2nc1C [Compound 779, N-{3-[2-(4-chloro-3-fluorophenoxy)acetamido]bicyclo[1.1.1]pentan-1-yl}-2,3-dimethylquinoxaline-6-carboxamide]",> 2000
8,"Cc1ccncc1C(=O)NC12CC(NC(=O)COc3ccc(Cl)c(F)c3)(C1)C2 [Compound 738, N-{3-[2-(4-chloro-3-fluorophenoxy)acetamido]bicyclo[1.1.1]pentan-1-yl}-4-methylpyridine-3-carboxamide]",> 2000
9,"O=C(COc1ccc(Cl)c(F)c1)NC12CC(NC(=O)c3ccc(C(F)(F)F)cn3)(C1)C2 [Compound 120, N-{3-[2-(4-chloro-3-fluorophenoxy)acetamido]bicyclo[1.1.1]pentan-1-yl}-5-(trifluoromethyl)pyridine-2-carboxamide]",50 to 250
10,"O=C(COc1ccc(Cl)c(F)c1)NC12CC(NC(=O)c3ccc4c(c3)OC(F)(F)O4)(C1)C2 [Compound 234, N-{3-[2-(4-chloro-3-fluorophenoxy)acetamido]bicyclo[1.1.1]pentan-1-yl}-2,2-difluoro-2H-1,3-benzodioxole-5-carboxamide]",< 50
11,"Cc1csc(C(=O)NC23CC(NC(=O)COc4ccc(Cl)c(F)c4)(C2)C3)n1 [Compound 450, N-{3-[2-(4-chloro-3-fluorophenoxy)acetamido]bicyclo[1.1.1]pentan-1-yl}-4-methyl-1,3-thiazole-2-carboxamide]",50 to 250
12,"CCc1ocnc1C(=O)NC12CC(NC(=O)COc3ccc(Cl)c(F)c3)(C1)C2 [Compound 859, N-{3-[2-(4-chloro-3-fluorophenoxy)acetamido]bicyclo[1.1.1]pentan-1-yl}-5-ethyl-1,3-oxazole-4-carboxamide]",> 2000
13,"CC(C)n1ccc(C(=O)NC23CC(NC(=O)COc4ccc(Cl)c(F)c4)(C2)C3)n1 [Compound 819, N-{3-[2-(4-chloro-3-fluorophenoxy)acetamido]bicyclo[1.1.1]pentan-1-yl}-1-(propan-2-yl)-1H-pyrazole-3-carboxamide]",250 to 1000
14,"O=C(COc1ccc(Cl)c(F)c1)NC12CCC(NC(=O)c3cccc(O)n3)(CC1)CC2O (stereo not drawn) [Compound 943, N-{4-[2-(4-chloro-3-fluorophenoxy)acetamido]-3-hydroxybicyclo[2.2.2]octan-1-yl}-6-hydroxypyridine-2-carboxamide]",50 to 250
15,"COc1ccc(F)cc1C(=O)NC12CC(NC(=O)COc3ccc(Cl)c(F)c3)(C1)C2 [Compound 540, N-{3-[2-(4-chloro-3-fluorophenoxy)acetamido]bicyclo[1.1.1]pentan-1-yl}-5-fluoro-2-methoxybenzamide]",250 to 1000
16,"O=C(COc1ccc(F)c(F)c1)NC12CC(NC(=O)c3ccc(CCC4CC4)cn3)(C1)C2 [Compound 291, 5-(2-cyclopropylethyl)-N-{3-[2-(3,4-difluorophenoxy)acetamido]bicyclo[1.1.1]pentan-1-yl}pyridine-2-carboxamide]",50 to 250
